This passage reports inhibition and viability results from ChEMBL document CHEMBL3600282, “Four new ginsenosides from red ginseng with inhibitory activity on melanogenesis in melanoma cells” (Bioorg Med Chem Lett, 2015).

Calls of active or inactive are those of the source. The rule behind the calls is not given here.

Data set [1] has as its system B16. Nature of the data set: Inhibition of alpha-MSH-induced melanogenesis in mouse B16 cells assessed as reduction of melanin content at 200 uM after 48 hrs. The data set is classed as functional, cell-based.
Data set [2] relates to B16. Nature of the data set: Inhibition of alpha-MSH-induced melanogenesis in mouse B16 cells assessed as reduction of melanin content at 25 to 100 uM after 48 hrs. The format is functional, cell-based.
Data set [3] is described as follows: Cytotoxicity against mouse B16 cells assessed as cell viability up to 100 uM after 48 hrs by MTT assay. The data set is classed as cell-based. The following applies: read-out: Activity.
The test system of data set [4] is B16. Nature of the data set: Inhibition of alpha-MSH-induced melanogenesis in mouse B16 cells assessed as reduction of melanin content after 48 hrs. The data set is classed as functional, cell-based.
Data set [5] concerns B16. Put plainly: Inhibition of alpha-MSH-induced melanogenesis in mouse B16 cells assessed as reduction of melanin content at 100 uM after 48 hrs. The format is functional, cell-based.
The target of data set [6] is T1, Tyrosinase (Mus musculus) (UniProt P11344).
T1 sequence (whole entry): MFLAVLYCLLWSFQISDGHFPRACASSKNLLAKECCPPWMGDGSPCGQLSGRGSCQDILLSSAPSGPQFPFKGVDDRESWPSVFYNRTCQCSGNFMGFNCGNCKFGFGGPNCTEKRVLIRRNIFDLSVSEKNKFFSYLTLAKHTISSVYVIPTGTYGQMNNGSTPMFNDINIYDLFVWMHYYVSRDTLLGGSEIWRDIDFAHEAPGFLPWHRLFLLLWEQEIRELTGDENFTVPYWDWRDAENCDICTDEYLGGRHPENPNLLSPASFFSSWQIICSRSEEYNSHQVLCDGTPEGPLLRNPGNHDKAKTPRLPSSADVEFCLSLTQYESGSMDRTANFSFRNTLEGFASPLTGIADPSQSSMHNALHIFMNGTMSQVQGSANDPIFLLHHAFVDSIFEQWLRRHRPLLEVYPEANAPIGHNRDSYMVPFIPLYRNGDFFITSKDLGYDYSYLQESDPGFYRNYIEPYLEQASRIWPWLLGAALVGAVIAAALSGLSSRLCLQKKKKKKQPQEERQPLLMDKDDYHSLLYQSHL
Put plainly: Inhibition of alpha-MSH-induced tyrosinase activity in mouse B16 cells assessed as reduction of melanin content using L-DOPA as substrate after 2 hrs. The data set is classed as cell-based.

Take `OC[C@H]1O[C@@H](Oc2ccc(O)cc2)[C@H](O)[C@@H](O)[C@@H]1O`: the inhibition entry with B16 [1] was “Active”.

On to `CC(C)=CCC[C@](C)(O)[C@H]1CC[C@]2(C)[C@@H]1[C@H](O)C[C@@H]1[C@@]3(C)CC[C@H](O)C(C)(C)[C@@H]3[C@@H](O[C@@H]3O[C@H](CO)[C@@H](O[C@H]4O[C@H](CO)[C@@H](O)[C@H](O)[C@H]4O)[C@H](O)[C@H]3O)C[C@]12C`, for which the inhibition result in the data set on B16 [2] is “inactive”. Also, the viability at 48 h in data set [3] came to 95%.

On to `CC(=O)OC[C@H]1O[C@@H](O[C@H]2[C@H](O[C@H]3CC[C@]4(C)[C@H]5C[C@@H](O)[C@@H]6[C@@H](/C(C)=C\CC=C(C)C)CC[C@@]6(C)[C@]5(C)CC[C@H]4C3(C)C)O[C@H](CO)[C@@H](O)[C@@H]2O)[C@H](O)[C@@H](O)[C@@H]1O`, for which the inhibition entry (in the data set on B16 [4]; in data set [6]) was “Dose-dependent effect” in each case. Besides, in the data set on B16 [5], the inhibition result was “Active”. In addition, in data set [3], the viability at 48 h came out at 95%.

With `CCCCOC(=O)[C@H]1O[C@@H](O[C@H]2CC[C@]3(C)[C@H]4CC=C5[C@@H]6CC(C)(C)CC[C@]6(C(=O)O[C@@H]6O[C@H](CO)[C@@H](O)[C@H](O)[C@H]6O)CC[C@@]5(C)[C@]4(C)CC[C@H]3C2(C)C)[C@H](O[C@@H]2O[C@H](CO)[C@@H](O)[C@H](O)[C@H]2O)[C@@H](O)[C@@H]1O`, the inhibition result in the data set with B16 [2] is “inactive”. For the same compound, in data set [3], the viability at 48 h was determined as 95%.

Consider `COC(/C=C(\C)[C@H]1CC[C@]2(C)[C@@H]1[C@H](O)C[C@@H]1[C@@]3(C)CC[C@H](O[C@@H]4O[C@H](CO)[C@@H](O)[C@H](O)[C@H]4O[C@@H]4O[C@H](CO)[C@@H](O)[C@H](O)[C@H]4O)C(C)(C)[C@@H]3CC[C@]12C)C1OC1(C)C` (stereo partly drawn), for which the inhibition entry (in the data set with B16 [4]; in data set [6]) was “Dose-dependent effect” throughout. Further, the inhibition result in the data set with B16 [5] was “Active”. In addition, in data set [3], the viability at 48 h amounted to 95%.
